In general, Ki refers to the dissociation constant of the complex between target and ligand, obtained from inhibition or displacement. A high value points to weaker binding.

Each structure is given as a SMILES string.

Type in all cases: biochemical
For assay [1], the target named is T1, TxGH116 β-glucosidase (Thermoanaerobacterium xylanolyticum, UniProt F6BL85).
T1 sequence (F6BL85 19-806): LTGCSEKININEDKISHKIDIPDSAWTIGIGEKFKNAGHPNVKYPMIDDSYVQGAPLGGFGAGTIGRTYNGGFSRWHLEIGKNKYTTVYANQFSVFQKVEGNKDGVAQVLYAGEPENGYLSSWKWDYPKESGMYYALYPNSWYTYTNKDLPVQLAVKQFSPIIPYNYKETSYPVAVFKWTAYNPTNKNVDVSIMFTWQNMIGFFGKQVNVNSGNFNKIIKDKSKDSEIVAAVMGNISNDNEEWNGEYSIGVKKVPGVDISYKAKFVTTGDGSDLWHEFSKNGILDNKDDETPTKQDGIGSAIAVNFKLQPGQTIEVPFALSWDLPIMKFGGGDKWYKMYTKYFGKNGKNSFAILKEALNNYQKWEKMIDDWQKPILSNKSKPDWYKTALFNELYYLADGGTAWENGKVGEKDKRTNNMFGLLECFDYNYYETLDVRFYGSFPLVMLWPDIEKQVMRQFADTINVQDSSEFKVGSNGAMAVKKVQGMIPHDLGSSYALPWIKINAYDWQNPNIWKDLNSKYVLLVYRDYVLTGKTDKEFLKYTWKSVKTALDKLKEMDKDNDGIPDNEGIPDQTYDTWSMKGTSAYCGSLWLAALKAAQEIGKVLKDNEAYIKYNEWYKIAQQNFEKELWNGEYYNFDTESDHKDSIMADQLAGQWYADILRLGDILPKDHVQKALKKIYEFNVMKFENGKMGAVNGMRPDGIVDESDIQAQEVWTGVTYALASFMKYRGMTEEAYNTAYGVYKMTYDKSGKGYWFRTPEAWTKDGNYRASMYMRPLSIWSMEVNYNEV
The assay can be described thus: inactivation of the purified enzyme.

The target of assay [2] is T1, TxGH116 β-glucosidase. Briefly: crystal structure.
Assay [3] addresses T1, TxGH116 β-glucosidase. The assay can be described thus: inhibition of 4NPGlc hydrolysis, Lineweaver–Burk.
The target of assay [4] is T1, TxGH116 β-glucosidase. Briefly: crystal structure. This is another data set of the same source.

Take `OC[C@@H]1[C@@H](O)[C@H](O)[C@@H](O)[C@@H]2O[C@H]12` [cyclophellitol]: the “inactivation of the purified enzyme” value on TxGH116 β-glucosidase [1] is reported as “cyclophellitol, a related epoxide that contains a hydroxymethyl group corresponding to the hydroxymethyl group of glucose, rapidly inactivated TxGH116”.

`OC[C@H]1NC[C@H](O)[C@@H](O)[C@@H]1O` [DNJ, deoxynojirimycin] showed a Ki at TxGH116 β-glucosidase [2] of 0.13 ± 0.01 µM.

As for `OC[C@H]1CNC[C@@H](O)[C@@H]1O` [IFG, isofagomine], the inhibition constant (Ki) at TxGH116 β-glucosidase [3] is 0.0029 ± 0.0001 µM.

Compound `OC[C@H]1O[C@@H](O)[C@H](O)[C@@H](O)[C@@H]1O` [Glc, D-glucose] showed a Ki at TxGH116 β-glucosidase [4] of 4000 ± 300 µM.

Values taken from publication PMC4949581 (ACS Chemical Biology, 2016).
